Data taken from patent US8143419B2, “Trisubstituted 1,2,4-triazoles” (Janssen Pharmaceutica N. V., priority 2006, dated 2012).
Where a name gives a salt, the structure may show the parent alone.

What was measured:
hα7-wt nAChR = target: T1, hα7-wt nAChR (Homo sapiens, UniProt P36544); test: Ca2+ flux imaging (FDSS) (Protocol B), PAM activity with choline as agonist; assay type: cell-based; conditions: for EC50: "<5" = no top plateau at maximal concentration; for Emax: read-out: % efficacy
T1 construct: expressed in transfected cells
Procedure: • Hanks buffered saline solution (HBSS, Invitrogen, Belgium), supplemented with 10 mM HEPES (Invitrogen, Belgium), CaCl2 to a final concentration of 5 mM, 0.1% Bovine serum albumin (Sigma-Aldrich NV, Belgium). b) Calcium-Sensitive Dye—Fluo-4AM • Fluo-4AM (Molecular Probes, USA) was dissolved in DMSO containing 10% Pluronic acid (Molecular Probes, USA) to give a stock solution which was diluted in assay buffer supplemented with 5 mM probenicid (Sigma, Aldrich NV, Belgium) to give a final concentration of 2 μM. c) 384-Well Plates • Black 384 well plate black/clear plates, PDL pre-coated (Corning, Incorporated, USA) d) Calcium Flux Measurement
A Functional drug screening system (FDSS, Hamamatsu) was used to measure intracellular free-calcium flux signals.
Monolayers of hα7-wt nAChR-expressing cells were grown in multi-well plates, in particular black-sided, transparent bottomed 384 well plates coated with poly-D-lysine for 24 hours prior to loading with a fluorescent calcium indicator, in a particular embodiment loading with fluo-4AM for up to 120 minutes.
PAM activity was detected in real time by applying the compounds to be tested to the loaded cells along with a α7 nicotinic receptor agonist during constant monitoring of cellular fluorescence in a FDSS. Compounds giving peak fluorescent responses greater than the response due to agonist alone, were considered to be α7 nAChR PAM's. In a particular embodiment, the α7 nicotinic receptor agonist was choline, a more particular embodiment choline applied at a sub-maximal concentration of 100 μM. In a further setting of the present invention the compounds to be tested were applied prior to the α7 nicotinic receptor agonist, in a particular embodiment up to 10 minutes prior to the agonist.
A control response to choline was calculated on each plate from the difference in peak in fluorescence in wells receiving either choline or assay buffer alone. Compounds of the present invention were tested at a concentration range from 0.01 μM to 30 μM. Compounds were considered to have an interesting activity when they potentiated the choline signal at least with 500% when tested at a concentration of 30 μM (the efficacy of 100 μM choline was defined as 100% in the absence of a PAM). The compounds also have a potentiating effect on the response to choline when measured by whole-cell patch clamp electrophysiology in GH4C1 cells stably over-expressing the human wild-type α7 receptor.

T1 sequence (P36544 23-502): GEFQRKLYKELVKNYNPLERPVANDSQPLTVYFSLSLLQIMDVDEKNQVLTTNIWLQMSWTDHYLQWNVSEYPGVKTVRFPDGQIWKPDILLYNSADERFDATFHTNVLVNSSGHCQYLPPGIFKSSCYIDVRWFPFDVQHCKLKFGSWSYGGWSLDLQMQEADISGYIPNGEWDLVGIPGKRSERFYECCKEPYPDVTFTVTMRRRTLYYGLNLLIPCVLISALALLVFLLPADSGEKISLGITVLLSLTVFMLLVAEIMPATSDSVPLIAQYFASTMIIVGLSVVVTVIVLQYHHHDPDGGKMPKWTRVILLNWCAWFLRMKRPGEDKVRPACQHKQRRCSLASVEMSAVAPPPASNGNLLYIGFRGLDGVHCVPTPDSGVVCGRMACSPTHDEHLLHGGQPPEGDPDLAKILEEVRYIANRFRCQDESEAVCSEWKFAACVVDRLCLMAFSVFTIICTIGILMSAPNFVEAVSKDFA

Row | melting point [°C] | EC50 (hα7-wt nAChR) [nM] | Emax (hα7-wt nAChR) [%] | Structure (SMILES)
1 | 176.5 | 794 |  | C[C@H](O)Cn1nc(Nc2ccc(F)c(C(F)(F)F)c2)nc1-c1ccnc(NC2CC2)c1 [Compound 103]
2 | 165.4 | 3160 |  | COc1cc(-c2nc(Nc3cccc(C(F)(F)F)c3)nn2CCO)ccn1 [Compound 73]
3 | 162.2 | > 10000 |  | CCOc1ccc(-c2nc(Nc3ccc(F)cc3)nn2CCO)cn1 [Compound 170]
4 | 196.5 to 206.2 | 79.4 |  | COc1cccc(-c2nc(Nc3cccc(OC(F)(F)F)c3)nn2CC(=O)NC2CC2)c1 [Compound 162]
5 | 212.9 to 214 | > 10000 |  | CNC(=O)Cn1nc(Nc2cccc(C(F)(F)F)c2)nc1-c1ccncc1 [Compound 9]
6 | 140.3 | 2510 |  | Cc1nc(CCn2nc(Nc3ccc(F)c(C(F)(F)F)c3)nc2-c2ccncc2)no1 [Compound 141]
7 | 152.9 | 501 |  | OCCn1nc(Nc2cccc(C(F)(F)F)c2)nc1-c1ccc(C2CC2)nc1 [Compound 76]
8 | 151.6 |  |  | CC(C)(C)OC(=O)CCn1nc(Nc2ccc(F)c(C(F)(F)F)c2)nc1-c1ccnc(CN)c1 [Compound 30]
9 | 207.2 to 207.9 |  |  | COc1cc(OC)c(Nc2nc(-c3ccncc3)n(CCO)n2)cc1Cl [Compound 15]
10 |  | 79.4 |  | CN(C)C(=O)CCn1nc(Nc2cccc(Cl)c2)nc1-c1ccc2c(c1)OCCO2 [Compound 195]
11 |  | 3980 | 772 | CN(C)C(=O)CCn1nc(Nc2ccc(F)c(C(F)(F)F)c2)nc1-c1ccnc(CN)c1 [Compound 60]
12 | 140.5 to 142 |  |  | OCCn1nc(Nc2cc(Cl)ccc2Cl)nc1-c1ccccc1 [Compound 17]
13 |  | 1000 |  | CN(C)C(=O)CCn1nc(N2CCc3ccc(C(F)(F)F)cc32)nc1-c1ccc2c(c1)OCCO2 [Compound 211]
14 |  | > 10000 | 864 | COc1cc(Nc2nc(-c3ccnc(NCCO)c3)n(CC(=O)NCCO)n2)cc(C(F)(F)F)c1 [Compound 147]
15 |  | 1580 | 550 | CN(C)CCNC(=O)Cn1nc(Nc2cccc(OC(F)(F)F)c2)nc1-c1ccc2c(c1)OCCO2 [Compound 161]
16 | 156.1 |  |  | CC(C)(C)OC(=O)CCn1nc(Nc2ccc(F)c(C(F)(F)F)c2)nc1-c1ccnc(C#N)c1 [Compound 29]
17 | 180.7 |  |  | O=C(O)CCn1nc(Nc2ccc(F)c(C(F)(F)F)c2)nc1-c1ccnc(Cl)c1 [Compound 31]
18 |  | 501 |  | C[C@H](O)Cn1nc(Nc2cc(F)c(F)c(F)c2)nc1-c1ccnc(NC2CC2)c1 [Compound 173]

Further lines, the compound ahead of its results:

Row | Structure (SMILES) | melting point [°C] | EC50 (hα7-wt nAChR) [nM] | Emax (hα7-wt nAChR) [%]
19 | CC(=O)NCCn1nc(Nc2ccc(F)c(C(F)(F)F)c2)nc1-c1ccncc1 [Compound 138] | 174.3 | > 10000 | 
20 | CNC(=O)Cn1nc(Nc2ccc3c(c2)OC(F)(F)O3)nc1-c1cc(C)ncc1Cl [Compound 202] | 243 | 3160 | 
21 | COc1cc(-c2nc(Nc3cccc(C(F)(F)F)c3)nn2CCC(=O)N(C)C)cc(C)n1 [Compound 83] | 187.2 | 200 | 
22 | C[C@H](O)Cn1nc(Nc2ccc(F)c(F)c2)nc1-c1ccc(C(=O)N2CCCC2)nc1 [Compound 174] | 181.7 | > 10000 | 667
23 | CCNc1ccc(-c2nc(Nc3ccc(F)c(C(F)(F)F)c3)nn2CCC(=O)N(C)C)cn1 [Compound 130] | 201.1 | 100 | 
24 | CN(C)C(=O)CCn1nc(Nc2ccc(F)c(F)c2)nc1-c1ccc(C(F)(F)F)nc1 [Compound 191] | 194.4 | 1260 | 
25 | CC(C)NC(=O)CCn1nc(Nc2cccc(C(F)(F)F)c2)nc1-c1ccncc1 [Compound 22] | 196.5 to 197.2 |  | 
26 | Cc1cc(-c2nc(Nc3cccc(OC(F)(F)F)c3)nn2CC(=O)NC2CC2)ccn1 [Compound 164] | 190.7 | 2000 | 
27 | CC(C)NC(=O)Cn1nc(Nc2cccc(C(F)(F)F)c2)nc1-c1ccc2c(c1)OCCO2 [Compound 5] | 213.9 to 215 | 200 | 
28 | CNC(=O)Cn1nc(Nc2ccc3c(c2)OC(F)(F)O3)nc1-c1ccnc(C)c1 [Compound 200] | 227 | 2000 | 
29 | Cc1ccc(-c2nc(Nc3ccc(F)c(C(F)(F)F)c3)nn2CCC(=O)N(C)C)cn1 [Compound 127] | 185.4 | 200 | 
30 | O=C(Cn1nc(Nc2ccc(F)c(C(F)(F)F)c2)nc1-c1ccnc(CO)c1)NC1CC1 [Compound 61] | 242.2 | 5010 | 
31 | Cc1noc(CCn2nc(Nc3ccc(F)c(C(F)(F)F)c3)nc2-c2ccncc2)n1 [Compound 69] |  | 2000 | 
32 | CCNc1cnccc1-c1nc(Nc2cccc(OC(F)(F)F)c2)nn1CC(C)O (stereo not drawn) [Compound 149] |  | 1000 | 704
33 | O=C(CCn1nc(Nc2cccc(C(F)(F)F)c2)nc1-c1ccncc1)N1CCOCC1 [Compound 86] |  | 1260 | 
34 | COc1ccc(Cl)cc1Nc1nc(-c2ccc3c(c2)OCCO3)n(CCC(=O)N(C)C)n1 [Compound 197] |  | 126 | 

Row | Structure (SMILES) | melting point [°C] | EC50 (hα7-wt nAChR) [nM] | Emax (hα7-wt nAChR) [%]
35 | CC(C)(C)NC(=O)CCn1nc(Nc2ccc(F)c(C(F)(F)F)c2)nc1-c1ccncc1 [Compound 137] |  | 1580 | 
36 | Cc1cc(-c2nc(Nc3ccc4c(c3)OC(F)(F)O4)nn2CC(C)O)ccn1 (stereo not drawn) [Compound 198] |  | > 10000 | 
37 | CCNc1cc(-c2nc(Nc3ccc(F)c(C(F)(F)F)c3)nn2C[C@H](C)O)ccn1 [Compound 99] |  | 1000 | 
38 | CN(C)C(=O)CCn1nc(Nc2ccc(F)c(C(F)(F)F)c2)nc1-c1cnc2c(c1)CCN2 [Compound 58] |  | 158 | 
39 | COCCNc1ccc(-c2nc(Nc3ccc(F)c(C(F)(F)F)c3)nn2CCO)cn1 [Compound 93] |  | 3160 | 764
40 | C[C@@H](O)Cn1nc(Nc2ccc(F)c(C(F)(F)F)c2)nc1-c1ccc(C2CC2)nc1 (as salt: HCl) (hydrate or solvate) [Compound 100] | 204.6 |  | 
41 | C[C@H](O)Cn1nc(Nc2ccc(F)c(C(F)(F)F)c2)nc1-c1ccnc(C2CC2)c1 [Compound 102] |  | 2000 | 
42 | N/C(CCn1nc(Nc2ccc(F)c(C(F)(F)F)c2)nc1-c1ccnc(Cl)c1)=N\O [Compound 55] | 166.8 |  | 
43 | OCCn1nc(Nc2ccc(F)c(C(F)(F)F)c2)nc1-c1ccc(NC2CC2)nc1 [Compound 95] |  | 2000 | 899
44 | CC(O)Cn1nc(Nc2cccc(OC(F)(F)F)c2)nc1-c1ccnc(C2CC2)c1 (stereo not drawn) [Compound 151] |  | 2000 | 
45 | CNC(=O)CCn1nc(Nc2cccc(C(F)(F)F)c2)nc1-c1ccc2c(c1)OCCO2 [Compound 12] |  | 794 | 
46 | C[C@H](O)Cn1nc(Nc2ccc(F)c(C(F)(F)F)c2)nc1-c1cnc2ccoc2c1 [Compound 106] |  | 2510 | 
47 | N#CCCn1nc(Nc2cccc(C(F)(F)F)c2)nc1-c1ccncc1 [Compound 64] | 155.9 to 157.1 |  | 
48 | CC(O)Cn1nc(Nc2cccc(OC(F)(F)F)c2)nc1-c1ccnc(C2CC2)c1 (stereo not drawn) (as salt: HCl) [Compound 151] | 207.5 |  | 
49 | CCNC(=O)Cn1nc(Nc2cc(Br)cc(C(F)(F)F)c2)nc1-c1ccc(OC)c(OCc2ccccc2)c1 [Compound 142] |  | 100 | 
50 | C[C@H](O)Cn1nc(Nc2ccc(F)c(C(F)(F)F)c2)nc1-c1ccc(C2CC2)nc1 [Compound 101] |  | 631 | 
